Test in all cases: growth of human tumour cells (NCI), 48 h
The subject of test [1] is SNB-75 CNS.
For test [2], the system named is IGROV1 ovarian.
Test [3] relates to HCT-15 colon.
Test [4] deals with COLO 205 colon.
In test [5] the test system is T-47D breast.
For test [6], the system named is MALME-3M melanoma.
Test [7] concerns TK-10 renal.
Test [8] relates to KM12 colon.

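96-well plates; 48 h exposure; 5 concentrations. Endpoints by linear interpolation between flanking doses. Not reached: highest tested concentration assigned. Abbreviation: GI50, concentration required for 50% inhibition of growth. TGI is the concentration that stops growth completely.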 Where only a bound is given, the exact number is not on record here.

On to `COc1ccc(-c2cc(-c3ccc(Cl)cc3)nc(NCCCCNc3ccnc4cc(Cl)ccc34)n2)cc1`, for which the GI50 was 10 µM in test [1]; 1.46 µM in test [2]; 1.69 µM in test [3]; 1.86 µM in test [4]; 12.3 µM in test [5]; 1.75 µM in test [6]. The GI50 in test [7] was 3.95 µM; in test [8], 1.9 µM. Besides, the TGI came to 22.1 µM in test [1]; 3.12 µM in test [2]; 3.71 µM in test [3]; 4.53 µM in test [4]; 31.4 µM in test [5]; 3.36 µM in test [6]. Moreover, the TGI in test [7] amounted to 13.3 µM; in test [8], 3.72 µM.

For `COc1cc(-c2nc3ccccc3o2)cc(CN2CCCCC2)c1O`, the GI50 in test [1] was 2.3 µM; in test [2], 14 µM; in test [3], 1.05 µM; in test [4], 2.38 µM; in test [5] it was 17 µM; in test [6], 1.8 µM. For the same molecule, the GI50 in test [7] was 31.2 µM; in test [8], 2.39 µM. In addition, the TGI in test [1] is 4.76 µM; in test [2], greater than 100 µM; in test [3], 26 µM; in test [4] it was 4.6 µM; in test [5], greater than 100 µM; in test [6] it was 3.87 µM. Further, the TGI was greater than 85.8 µM in test [7] and 16.6 µM in test [8].

In the case of `O=C(Nc1cc(F)c(F)cc1C(=O)O)c1ccc(-n2ccnc2)nn1`, the GI50 in test [1], in test [2], in test [3], in test [4], in test [5] and in test [6] was greater than 100 µM each time. Also, the GI50 in test [7] and in test [8] was greater than 100 µM in each case. In addition, the TGI in test [1], in test [2], in test [3], in test [4], in test [5] and in test [6] was greater than 100 µM in each case. Besides, the TGI in test [7] and in test [8] was greater than 100 µM throughout.

As to `O=C(/C=C/c1ccccn1)c1ccc(OCc2nnc(-c3ccc(Cl)cc3)o2)cc1`, the GI50 in test [1] was 1.46 µM; in test [2], 1.96 µM; in test [3] it was 1.62 µM; in test [4], 2.23 µM; in test [5], 2.65 µM; in test [6] it was 2.28 µM. Further, the values for the GI50 in test [7] and in test [8] were 2.68 µM and 1.48 µM, respectively. Moreover, the TGI was 2.89 µM in test [1]; 3.62 µM in test [2]; 3.36 µM in test [3]; 4.39 µM in test [4]; 8.64 µM in test [5]; 4.46 µM in test [6]. In addition, the figures for the TGI in test [7] and in test [8] were 6.24 µM and 3.3 µM, respectively.

`CCN(CC)CCN1c2nc3ccccc3cc2Sc2cc3ccccc3nc21`: the GI50 is 1.32 µM in test [1]; 0.473 µM in test [2]; 1.58 µM in test [3]; 1.35 µM in test [4]; 3.09 µM in test [5]; 1.57 µM in test [6]. In addition, the GI50 in test [7] was 3.54 µM; in test [8], 2.01 µM. For the same molecule, the TGI in test [1] was found to be 6.22 µM; in test [2] it was 2.48 µM; in test [3], 3.76 µM; in test [4], 2.85 µM; in test [5], 12.5 µM; in test [6], 3.12 µM. In addition, the TGI in test [7] stood at 8.74 µM; in test [8], 5 µM.

In the case of `O=C(NCCOCCOCCOCCNC(=O)c1cc2c(o1)C(=O)c1ccccc1C2=O)NC12CC3CC(CC(C3)C1)C2`, the GI50 in test [1] was 2.25 µM; in test [2], 2.11 µM; in test [3], 1.58 µM; in test [4] it was 1.96 µM; in test [5] it was 1.59 µM; in test [6], 0.191 µM. Moreover, the GI50 in test [7] is 3.68 µM; in test [8], 3.34 µM. The TGI in test [1] turned out to be 4.06 µM; in test [2], 8.53 µM; in test [3] it was 3.68 µM; in test [4] it was 3.97 µM; in test [5], 6.02 µM; in test [6] it was 0.489 µM. The TGI in test [7] amounted to 7.24 µM; in test [8], 13 µM.

Turning to `COc1ccc(C(=O)c2cc3c(N)c(C(=O)Nc4cccc(Br)c4C)sc3nc2C)cc1`, the GI50 in test [1] is 0.0405 µM; in test [2], 0.0869 µM; in test [3] it was 0.0489 µM; in test [4], 0.22 µM; in test [5] it was 50.4 µM; in test [6], 0.0542 µM. For the same molecule, the GI50 in test [7] is 36.4 µM; in test [8], 0.0684 µM. In addition, the TGI was greater than 100 µM in test [1]; greater than 100 µM in test [2]; greater than 100 µM in test [3]; 0.987 µM in test [4]; greater than 100 µM in test [5]; greater than 100 µM in test [6]. Besides, the TGI in test [7] is greater than 100 µM; in test [8], greater than 36.3 µM.

With `COc1ccc2c(O)c(/C=C3\N=Nc4ncccc43)oc2c1C[C@@H]1CCNC[C@H]1F`, the GI50 in test [1] was 0.378 µM; in test [2] it was 1.79 µM; in test [3], 0.234 µM; in test [4], 0.323 µM; in test [5] it was 2.32 µM; in test [6] it was 1.89 µM. The GI50 in test [7] was 2.11 µM; in test [8], 0.314 µM. For the same molecule, the TGI was 1.94 µM in test [1]; 8.11 µM in test [2]; 1.87 µM in test [3]; 1.43 µM in test [4]; 11.8 µM in test [5]; 5.23 µM in test [6]. Also, the TGI is 5.91 µM in test [7] and 1.4 µM in test [8].

With `[N-]=[N+]=NCCCn1c2c(c3ccc([N+](=O)[O-])cc3c1=O)C(=O)c1cc(-c3ccccc3)ccc1-2`, the GI50 is 43.3 µM in test [1]; greater than 100 µM in test [2]; greater than 100 µM in test [3]; greater than 100 µM in test [4]; greater than 100 µM in test [5]; greater than 100 µM in test [6]. Further, the GI50 in test [7] and in test [8] was greater than 100 µM each time. Moreover, the TGI in test [1], in test [2], in test [3], in test [4], in test [5] and in test [6] was greater than 100 µM in each case. Further, the TGI in test [7] and in test [8] was greater than 100 µM in each case.

(Values after PubChem BioAssay (NCI).)
